# In patent US9040019B2, “Methods of detecting myelin basic protein” (General Electric Company, priority 2012, dated 2015):
# What was measured:
# [1] = Measurement of optical properties of the agents (absorbance and fluorescence emission); assay type: physicochemical; conditions: in DMSO; for Abs (maximal absorbance wavelength) / Em (maximal fluorescence emission wavelength): compounds lacking nerve binding; for Absorbance Maximum / Emission Maximum / Stoke shift: nerve labeling agents
# Procedure: The flurophores were dissolved in dimethylsulfoxide (DMSO) to make a 10 mM stock solution. An aliquot was taken to prepare a 10-100 μM flurophore solution in methanol, water, or DMSO. Optical measurements from the three solvents were taken. Absorbance spectra were measured using a PerkinElmer Lambda™ 20 UV/VIS spectrometer (PerkinElmer, Waltham, Mass.). Emission spectra were generated using a PTI steady state fluorimeter (Photon Technology International, Birmingham, N.H.). The stoke shift for nerve labeling agents on Table 3 are greater than 100 nm.
# [2] = tested on: nerves; assay: Pre-clinical fluorescence in vivo imaging of nerves in a large rodent model; set-up: species or system Sprague Dawley (SD) rat; conditions: 0.5 hours post injection
# Procedure: (§1) All procedures were approved by the Institutional Animal Care and Use Committee (IACUC) at GE Global Research. Male CD-1 mice ranging in body weight from 25-30 g and SD rats (250-350 g) were purchased from Charles River Laboratories (Wilmington, Mass.) and housed at 22-23° C. on a 12-hour light/dark cycle. On the day of the experiment, rodents were anesthetized using 2-4% isofluorane and given a single tail vein injection of either imaging agent in formulation or formulation excipients alone. […]
# (§2) In vivo imaging consisted of detailed fluorescence emission characterization and surgical imaging using a Zeiss Lumar™ imaging system (Carl Zeiss Inc. Thornwood, N.Y.) with coupled multispectral imaging camera (Nuance camera; CRI, Woburn, Mass.) or AxioCam™ (Carl Zeiss Inc. Thornwood, N.Y.). […] A variety of excitation filters were used to characterize the in vivo fluorescence of these agents. […] Fluorescence emission data was then recorded at wavelengths ranging from 420 to 720 nm at 10 nm steps using the attached CRI-Nuance™ camera (Cambridge Research and Instrumentation Inc., Wobur, Mass.) or using a 500 nm-long pass filter on the AxioCam. Fluorescence images were collected using exposure times of 5 seconds in both control and agent injected animals for normalization. […]
# [3] = tested on: sciatic nerve tissue sections; assay: Ex vivo binding of nerve labelling agents to sciatic nerve tissue sections (fluorescence microscopy); set-up: species or system male Sprague Dawley (SD) rats; conditions: 10 μM or 20 μM agent, 1 hour incubation, compared to control tissue without agent
# Procedure: For ex vivo histological evaluation, various nerves including sciatic, femoral and trigeminal were harvested from male Sprague Dawley (SD) rats. Tissue was fixed by perfusion and/or post-fixed with formalin. Nerves were then flash-frozen using methanol and dry ice in OCT media. In some cases, polyvinylidene fluoride membranes were used to help keep the nerves vertical in the OCT media. Thin sections (5-10 microns) were sliced on a Leica microtome and stored in a −80° C. freezer prior to staining with antibodies or fluorescent dyes.
# Nerve sections were prepared as described above. At the time of staining the slides were removed from −80° C. and allowed to come to room temperature. The nerves were fixed in neutral buffered formalin (10%) for 5 min after which the slides were rinsed in 1×PBS (3×, 5 min/each). 10 μM, or 20 μM each Formula II, Formula III, Formula IV, Formula V, or Formula VI was added onto the tissue in a formulation containing 10% Cremophor EL and 60% rat serum made in 1×PBS. The slides were incubated for 1 hour in a dark, moist/humid chamber at room temperature after which they were washed 3 times for 5 min/each in 1×PBS, cover-slipped, and imaged using the appropriate filter cube on a Zeiss Axioimager at 200× magnification.
# [4] = tested on: nerve, muscle, and adipose tissue; assay: Kinetics of clearance, tissue fluorescence after IV injection; assay type: in vivo, adult male CD-1 mice; conditions: 3.33 mg/kg IV; 0.5, 1, 2 and 3 hours post injection
# Procedure: as §1, §2
SMILES,Abs (maximal absorbance wavelength) [1] [nm],Em (maximal fluorescence emission wavelength) [1] [nm],Absorbance Maximum [1] [nm],Emission Maximum [1] [nm],Stoke shift [1] [nm],Ex vivo binding to sciatic nerve tissue sections (fluorescence signal) [3],further results
CC1(C)OC(=O)C(C#N)=C1/C=C/c1ccc(N)cc1 [A],480,562,,,,,
CC1(C)OC(=O)C(C#N)=C1/C=C/c1ccc(NCCO)cc1 [B],494,578,,,,,
CC1(C)OC(=O)C(C#N)=C1/C=C/c1ccc(N(CCO)CCO)cc1 [C],505,591,,,,,
CC1(C)OC(=C(C#N)C#N)C(C#N)=C1/C=C/c1ccc(N)cc1 [D],574,621,,,,,
CC1(C)OC(=C(C#N)C#N)C(C#N)=C1/C=C/c1ccc(NCCO)cc1 [E],590,636,,,,,
CC1(C)OC(=C(C#N)C#N)C(C#N)=C1/C=C/c1ccc(N(CCO)CCO)cc1 [F],596,656,,,,,
CC1=CC(=C(C#N)C#N)C=C(/C=C/c2ccc(N(CCO)CCO)cc2)O1 [Formula III],,,491,623,132,,
CC1=CC(=C(C#N)C#N)C=C(/C=C/c2ccc(N)cc2)O1 [Formula II],,,478,607,129,fluorescence signal is evident,"Nerve visibility in fluorescence imaging ([2]; 8.33 mg/kg IV): Visible nerves present; Nerve visibility in fluorescence imaging ([2]; 16.67 mg/kg IV): Visible nerves present; Maximum tissue-specific fluorescence intensity over time post injection (nerve, muscle, adipose tissue) [4]: decreases with increasing time post injection"
COc1cc(/C=C/C2=CC(=C(C#N)C#N)C=C(C)O2)ccc1NCc1ccc(N)cc1 [Formula IV],,,492,642,150,,
COc1cc(/C=C/C2=CC(=C(C#N)C#N)C=C(C)O2)ccc1N [Formula VI],,,478,631,153,,
CC1=CC(=C(C#N)C#N)C=C(/C=C/c2ccc(NCCO)cc2)O1 [Formula V],,,484,618,134,,
CC1=CC(=C(C#N)C#N)C=C(/C=C/c2ccc(N(CCO)CCO)cc2)O1 [III],,,,,,fluorescence signal is evident,
COc1cc(/C=C/C2=CC(=C(C#N)C#N)C=C(C)O2)ccc1NCc1ccc(N)cc1 [IV],,,,,,fluorescence signal is evident,
COc1cc(/C=C/C2=CC(=C(C#N)C#N)C=C(C)O2)ccc1N [VI],,,,,,fluorescence signal is evident,
CC1=CC(=C(C#N)C#N)C=C(/C=C/c2ccc(NCCO)cc2)O1 [V],,,,,,fluorescence signal is evident,
